± gives the expanded uncertainty stated by the source.
Conditions: Liquid; for mass density: Siemens ultrasonic flowmeter; for viscosity: Capillary tube (Ostwald / Ubbelohde) method

CCCCCCC(=O)OCC [ethyl heptanoate]
mass density (303.1 K, 6000 kPa): 867.7 ± 5 kg/m3 | mass density (303.19 K, 14980 kPa): 877.5 ± 5 kg/m3 | mass density (303.2 K, 100 kPa): 860.8 ± 5 kg/m3 | mass density (303.2 K, 3020 kPa): 864.5 ± 5 kg/m3 | mass density (303.2 K, 9010 kPa): 871.2 ± 5 kg/m3 | mass density (303.21 K, 11950 kPa): 874.5 ± 5 kg/m3 | viscosity (312.72 K, 9120 kPa): 1.006 ± 0.017 mPa·s | viscosity (312.73 K, 100 kPa): 0.9036 ± 0.015 mPa·s | viscosity (312.77 K, 6100 kPa): 0.9702 ± 0.016 mPa·s | viscosity (312.8 K, 3100 kPa): 0.9452 ± 0.016 mPa·s | mass density (312.96 K, 100 kPa): 851.2 ± 5 kg/m3 | mass density (313.06 K, 3060 kPa): 854.7 ± 5 kg/m3 | viscosity (313.1 K, 12180 kPa): 1.033 ± 0.017 mPa·s | mass density (313.13 K, 6090 kPa): 858.1 ± 5 kg/m3 | mass density (313.17 K, 9070 kPa): 861.4 ± 5 kg/m3 | mass density (313.17 K, 15010 kPa): 867.9 ± 5 kg/m3 | viscosity (313.17 K, 15170 kPa): 1.06 ± 0.018 mPa·s | mass density (313.18 K, 12000 kPa): 864.7 ± 5 kg/m3 | viscosity (322.62 K, 100 kPa): 0.7963 ± 0.013 mPa·s | viscosity (322.71 K, 3120 kPa): 0.8252 ± 0.014 mPa·s | viscosity (322.76 K, 15110 kPa): 0.9293 ± 0.016 mPa·s | viscosity (322.78 K, 6130 kPa): 0.8471 ± 0.014 mPa·s | viscosity (322.85 K, 9090 kPa): 0.8702 ± 0.015 mPa·s | viscosity (322.91 K, 12080 kPa): 0.9036 ± 0.015 mPa·s | mass density (323.09 K, 100 kPa): 841.6 ± 5 kg/m3 | mass density (323.09 K, 15150 kPa): 859.2 ± 5 kg/m3 | mass density (323.1 K, 9100 kPa): 852.5 ± 5 kg/m3 | mass density (323.11 K, 3100 kPa): 845.2 ± 5 kg/m3 | mass density (323.13 K, 12060 kPa): 855.8 ± 5 kg/m3 | mass density (323.14 K, 6110 kPa): 848.8 ± 5 kg/m3 | mass density (333.05 K, 100 kPa): 832.1 ± 5 kg/m3 | mass density (333.14 K, 3010 kPa): 835.6 ± 5 kg/m3 | mass density (333.14 K, 9020 kPa): 843.2 ± 5 kg/m3 | mass density (333.14 K, 12010 kPa): 846.8 ± 5 kg/m3 | mass density (333.18 K, 6080 kPa): 839.7 ± 5 kg/m3 | mass density (333.2 K, 15070 kPa): 850.5 ± 5 kg/m3 | viscosity (333.42 K, 15070 kPa): 0.8106 ± 0.014 mPa·s | viscosity (333.45 K, 100 kPa): 0.7016 ± 0.012 mPa·s | viscosity (333.5 K, 12100 kPa): 0.7844 ± 0.013 mPa·s | viscosity (333.57 K, 3070 kPa): 0.7229 ± 0.012 mPa·s | viscosity (333.6 K, 9160 kPa): 0.7629 ± 0.013 mPa·s | viscosity (333.63 K, 6130 kPa): 0.7431 ± 0.013 mPa·s | mass density (343.02 K, 100 kPa): 823 ± 5 kg/m3 | mass density (343.06 K, 3010 kPa): 827.1 ± 5 kg/m3 | viscosity (343.16 K, 100 kPa): 0.6217 ± 0.01 mPa·s | mass density (343.19 K, 15000 kPa): 842.1 ± 5 kg/m3 | mass density (343.2 K, 9000 kPa): 834.8 ± 5 kg/m3 | viscosity (343.22 K, 9070 kPa): 0.6801 ± 0.011 mPa·s | viscosity (343.22 K, 12050 kPa): 0.6996 ± 0.012 mPa·s | mass density (343.22 K, 12100 kPa): 838.5 ± 5 kg/m3 | mass density (343.23 K, 6050 kPa): 831 ± 5 kg/m3 | viscosity (343.27 K, 3070 kPa): 0.6412 ± 0.011 mPa·s | viscosity (343.27 K, 15120 kPa): 0.7191 ± 0.012 mPa·s | viscosity (343.38 K, 6080 kPa): 0.6593 ± 0.011 mPa·s | viscosity (352.71 K, 100 kPa): 0.5547 ± 0.0094 mPa·s | viscosity (352.83 K, 3040 kPa): 0.5733 ± 0.0097 mPa·s | mass density (352.85 K, 100 kPa): 815.1 ± 5 kg/m3 | viscosity (352.86 K, 6100 kPa): 0.5898 ± 0.01 mPa·s | viscosity (352.9 K, 9030 kPa): 0.6068 ± 0.01 mPa·s | mass density (352.95 K, 3090 kPa): 819.4 ± 5 kg/m3 | viscosity (352.95 K, 12080 kPa): 0.6227 ± 0.011 mPa·s | viscosity (353.04 K, 15040 kPa): 0.6414 ± 0.011 mPa·s | mass density (353.06 K, 9090 kPa): 827.5 ± 5 kg/m3 | mass density (353.11 K, 6070 kPa): 823.2 ± 5 kg/m3 | mass density (353.14 K, 12070 kPa): 831.2 ± 5 kg/m3 | mass density (353.23 K, 15010 kPa): 835.1 ± 5 kg/m3

CCCCCCCC(=O)OCC [ethyl octanoate]
mass density (303.25 K, 100 kPa): 858.1 ± 5 kg/m3 | mass density (303.26 K, 12080 kPa): 871 ± 5 kg/m3 | mass density (303.3 K, 6080 kPa): 864.4 ± 5 kg/m3 | mass density (303.32 K, 3120 kPa): 861.3 ± 5 kg/m3 | mass density (303.32 K, 9130 kPa): 867.8 ± 5 kg/m3 | mass density (303.33 K, 15080 kPa): 874.1 ± 5 kg/m3 | viscosity (312.87 K, 100 kPa): 1.083 ± 0.018 mPa·s | viscosity (312.96 K, 3120 kPa): 1.133 ± 0.019 mPa·s | viscosity (313.03 K, 6060 kPa): 1.189 ± 0.02 mPa·s | mass density (313.05 K, 100 kPa): 849.5 ± 5 kg/m3 | mass density (313.08 K, 6150 kPa): 856.1 ± 5 kg/m3 | viscosity (313.08 K, 9090 kPa): 1.211 ± 0.02 mPa·s | mass density (313.1 K, 9150 kPa): 859.6 ± 5 kg/m3 | mass density (313.1 K, 12100 kPa): 862.7 ± 5 kg/m3 | mass density (313.11 K, 15110 kPa): 865.9 ± 5 kg/m3 | mass density (313.12 K, 3140 kPa): 853 ± 5 kg/m3 | viscosity (313.12 K, 12070 kPa): 1.245 ± 0.021 mPa·s | viscosity (313.14 K, 15240 kPa): 1.284 ± 0.022 mPa·s | mass density (323 K, 100 kPa): 841.1 ± 5 kg/m3 | viscosity (323.07 K, 100 kPa): 0.9464 ± 0.016 mPa·s | mass density (323.09 K, 3130 kPa): 844.7 ± 5 kg/m3 | mass density (323.1 K, 6150 kPa): 848.1 ± 5 kg/m3 | mass density (323.13 K, 9110 kPa): 851.4 ± 5 kg/m3 | mass density (323.14 K, 12140 kPa): 854.8 ± 5 kg/m3 | viscosity (323.16 K, 3150 kPa): 0.9842 ± 0.017 mPa·s | mass density (323.16 K, 15050 kPa): 858.1 ± 5 kg/m3 | viscosity (323.17 K, 6110 kPa): 1.016 ± 0.017 mPa·s | viscosity (323.17 K, 9080 kPa): 1.043 ± 0.017 mPa·s | viscosity (323.17 K, 12070 kPa): 1.064 ± 0.018 mPa·s | viscosity (323.19 K, 15060 kPa): 1.098 ± 0.018 mPa·s | mass density (333 K, 100 kPa): 832.2 ± 5 kg/m3 | viscosity (333.14 K, 100 kPa): 0.8143 ± 0.014 mPa·s | mass density (333.14 K, 3100 kPa): 836.2 ± 5 kg/m3 | mass density (333.18 K, 6080 kPa): 839.7 ± 5 kg/m3 | mass density (333.18 K, 9090 kPa): 843.3 ± 5 kg/m3 | mass density (333.2 K, 12100 kPa): 846.9 ± 5 kg/m3 | mass density (333.21 K, 15100 kPa): 850.3 ± 5 kg/m3 | viscosity (333.29 K, 3110 kPa): 0.8536 ± 0.014 mPa·s | viscosity (333.3 K, 6060 kPa): 0.8851 ± 0.015 mPa·s | viscosity (333.3 K, 9130 kPa): 0.9101 ± 0.015 mPa·s | viscosity (333.3 K, 15090 kPa): 0.9551 ± 0.016 mPa·s | viscosity (333.31 K, 12040 kPa): 0.9301 ± 0.016 mPa·s | viscosity (342.78 K, 100 kPa): 0.731 ± 0.012 mPa·s | viscosity (343.07 K, 6130 kPa): 0.7776 ± 0.013 mPa·s | mass density (343.1 K, 12150 kPa): 838.8 ± 5 kg/m3 | mass density (343.11 K, 100 kPa): 823.6 ± 5 kg/m3 | mass density (343.11 K, 3120 kPa): 827.8 ± 5 kg/m3 | mass density (343.14 K, 6100 kPa): 831.7 ± 5 kg/m3 | mass density (343.16 K, 9070 kPa): 835 ± 5 kg/m3 | viscosity (343.16 K, 9090 kPa): 0.7968 ± 0.013 mPa·s | mass density (343.17 K, 15000 kPa): 842.1 ± 5 kg/m3 | viscosity (343.22 K, 12100 kPa): 0.8165 ± 0.014 mPa·s | viscosity (343.27 K, 15050 kPa): 0.8446 ± 0.014 mPa·s | viscosity (343.41 K, 3120 kPa): 0.7572 ± 0.013 mPa·s | mass density (353.1 K, 100 kPa): 814.5 ± 5 kg/m3 | mass density (353.16 K, 9130 kPa): 826.8 ± 5 kg/m3 | viscosity (353.21 K, 100 kPa): 0.6393 ± 0.011 mPa·s | mass density (353.21 K, 3150 kPa): 819 ± 5 kg/m3 | mass density (353.24 K, 15070 kPa): 834.4 ± 5 kg/m3 | mass density (353.25 K, 12140 kPa): 830.7 ± 5 kg/m3 | mass density (353.27 K, 6150 kPa): 823 ± 5 kg/m3 | viscosity (353.32 K, 3120 kPa): 0.6742 ± 0.011 mPa·s | viscosity (353.35 K, 6090 kPa): 0.691 ± 0.012 mPa·s | viscosity (353.35 K, 12080 kPa): 0.7292 ± 0.012 mPa·s | viscosity (353.36 K, 15060 kPa): 0.7479 ± 0.013 mPa·s | viscosity (353.38 K, 9070 kPa): 0.707 ± 0.012 mPa·s
